Measured values taken from patent US20240108753A1, “NUCLEIC ACID DELIVERY” (NUNTIUS THERAPEUTICS LIMITED, priority 2021, published 2024).

Assay: Hydrodynamic size, polydispersity index and zeta potential of dendrimer, lipid and mRNA complexes
Assay type: physicochemical
Details: DOTMA/DOPE w/w 10:1 to mRNA; for Hydrodynamic size: dendrimer, lipid and mRNA complexes
Experimental: The hydrodynamic size, polydispersity index and Zeta potential was determined for a set of the dendrimers disclosed in Tables 1 and 2.

Substance | Polydispersity Index (PDI) (N:P 0.16:1) | Zeta Potential (N:P 0.16:1) [mV] | Polydispersity Index (PDI) (N:P 8:1) | Zeta Potential (N:P 8:1) [mV] | Hydrodynamic size (N:P 0.16:1) [nm] | Hydrodynamic size (N:P 8:1) [nm]
(BR)8(KRB)4(KRX)2KGSC-NH2 [G1-RX, 2-RB, 3-BR] | 0.108 | 41 | 0.403 | 56 | 130 | 70
(FR)8(KRQ)4(KRW)2KGSC-NH2 [G1-RW, 2-RQ, 3-FR] | 0.146 | 37 | 0.452 | 51 | 133 | 105
(HK)8(KKH)4(KKL)2KGSC-NH2 [G1-KL, 2-KH, 3-HK] | 0.237 | 35 | 0.126 | 49 | 131 | 103
(LR)8(DabRL)4(DabRL)2DabGSC-NH2 [DabG1,2-RL, 3-LR] | 0.117 | 34 | 0.286 | 57 | 124 | 78
(LR)8(KR)4(KRLR)2KRHC-NH2 [RHCG1-RLR, 2-R, 3-LR] | 0.136 | 41 | 0.439 | 59 | 121 | 75
(LR)8(KR)4(KRLRL)2KRHC-NH2 [RHCG1-RLRL, 2-R, 3-LR] | 0.131 | 43 | 0.37 | 56 | 135 | 78
(LR)8(KRL)4(KRE)2KGSC-NH2 [G1-RE, 2-RL, 3-LR] | 0.096 | 45 | 0.158 | 53 | 134 | 96
(LR)8(KRL)4(KRL)2KA-NH2 [KAG1,2-RL, 3-LR] | 0.136 | 47 | 0.184 | 51 | 125 | 76
(LRLR)2KGSC-NH2 [G1-LRLR] | 0.264 | 40 | 0.581 | 49 | 122 | 250
(LRLR)4(KLRLR)2KGSC-NH2 [G1,2-LRLR] | 0.181 | 41 | 0.189 | 53 | 130 | 92
(LRLR)8(KLRLR)4(KLRLR)2KGSC-NH2 [G1,2,3-LRLR] | 0.133 | 45 | 0.287 | 50 | 130 | 80
(MR)8(KRC)4(KRC)2KGSC-NH2 [G1-RC, 2-RC, 3-MR] | 0.148 | 43 | 0.19 | 56 | 121 | 87
(QR)8(KRT)4(KRY)2KGSC-NH2 [G1-RY, 2-RT, 3-QR] | 0.16 | 42 | 0.178 | 52 | 126 | 95
(R)8(KRL)4(KRLR)2KRHC-NH2 [RHCG1-RLR, 2-RL, 3-R] | 0.219 | 36 | 0.429 | 59 | 119 | 83
(RL)8(KLR)4(KLR)2KGSC-NH2 [G1,2-LR,3-RL] | 0.144 | 32 | 0.242 | 54 | 137 | 89

Continued, values first:

Polydispersity Index (PDI) (N:P 0.16:1) | Zeta Potential (N:P 0.16:1) [mV] | Polydispersity Index (PDI) (N:P 8:1) | Zeta Potential (N:P 8:1) [mV] | Hydrodynamic size (N:P 0.16:1) [nm] | Hydrodynamic size (N:P 8:1) [nm] | Substance
0.152 | 39 | 0.401 | 55 | 120 | 91 | (LR)8(KRL)4(KRL)2KRFW-NH2 [RFWG1,2-RL, 3-LR]
0.11 | 44 | 0.363 | 50 | 134 | 58 | (LR)8(KRL)4(KRL)2KRHC-NH2 [RHCG1,2-RL,3-LR]
0.137 | 43 | 0.257 | 56 | 133 | 68 | (LR)8(KRL)4(KRL)2KRYM-NH2 [RYMG1,2-RL, 3-LR]
0.116 | 35 | 0.213 | 56 | 117 | 73 | (LR)8(KRL)4(KRL)2KYM-NH2 [YMG1,2-RL, 3-LR]
0.173 | 43 | 0.396 | 62 | 125 | 70 | (R)8(KR)4(KR)2KRHC-NH2 [RHCG1,2,3-R]
